In brackets after ≈: the same amount, converted by molar mass. Like-named read-outs stand apart in the source and are kept apart here.
What was measured:
[1] = Lyophilisation solubility assay (Lysa); type: physicochemical; details: pH 6.5, aqueous buffer, thermodynamic from solid
Description: The aqueous solubility is an important physico-chemical property that plays a significant role in various physical and biological processes. It is desirable to have good solubility which enables good permeability and gastric and intestinal absorption, linear dose proportionality, less PK variability, and easy formulation for PD/PK studies. […] Lyophilisation solubility assay (Lysa) is a well adopted high throughput assay to measure compound solubility in industry.
Samples are prepared in duplicate from 10 mM DMSO stock solutions. After evaporation of DMSO with a centrifugal vacuum evaporator, the residue is solved in 0.05 M phosphate buffer (pH 6.5), stirred for one hour and shaken for two hours. After one night, the solutions is filtered using a microtiter filter plate and the filtrate and its 1/10 dilution are then analyzed by direct UV measurement or by HPLC-UV. […] The results are in μg/mL.

[2] = Metabolic stability study in human microsome; type: in vitro ADME
Description: Human Microsomes were preincubated with test compound for 10 min at 37° C. in 100 mM phosphate buffer, pH 7.4. The reactions were initiated by adding NADPH or NADPH regenerating system to give a final incubation volume of 400 μL. For NADPH system, the final incubations contained 1 μM test compound, 0.5 mg/mL liver microsomal protein, 1 mM NADPH in 100 mM phosphate buffer, pH 7.4. For the NADPH regenerating system, the final incubations contained 1 μM test compound, 0.5 mg/mL liver microsomal protein, 3 mM glucose 6-phosphate, 1 mM NADP, 3 mM MgCl2 and 0.05 mg/mL glucose 6-phosphate dehydrogenase in 100 mM phosphate buffer, pH 7.4. After incubation times of 0, 3, 6, 9, 15 and 30 minutes at 37° C., 50 μL samples was removed and transferred to 150 μL methanol solution which was maintained at 4° C. containing 2 μM tolbutamide (internal standard) to terminating the reaction. Following precipitation and centrifugation, the amount of compound remaining in the samples were determined by LC-MS/MS. Controls of no NADPH or NADPH regenerating system at zero and 30 min were also prepared and analyzed.

HBV = experiment: Anti-HBV activity in vitro in HepG2.2.15 cells (extracellular HBV DNA by qPCR); type: cell-based, Hepatitis B virus; details: Hepatitis B virus
Description: HepG2.2.15 and HepDE19 are stably-transfected cell lines containing the HBV genome. Both cell lines are derived from the hepatoblastoma cell line Hep G2 (American Type Culture Collection, ATCC® HB-8065™) by the published procedures described in references: MA Selles et al. Proc. Natl. Acad. Sci. USA 1987, 84, 1005-1009 and H Guo et al. Journal of Virology 2007, 81, 12472-12484, respectively. Both cell lines were maintained in Dulbecco's modified Eagle's medium (DMEM)-F12 medium supplemented with 10% fetal bovine serum, 100 U/mL penicillin, 100 μg/mL streptomycin, and 0.5 mg/mL of G418.
While HepG2.2.15 cells constitutively support HBV replication and production of virus particles, HepDE19 cells are inducible by tetracycline. Addition of 1 μg/mL tetracycline in culture medium suppresses HBV replication in HepDE19 cells, whereas switching to tetracycline-free medium resumes this process.
HepG2.2.15 cells were seeded into 96-well plates (3×10^4 cells in 100 μl media per well) and incubated overnight at 37° C. The test compounds were serially half-log diluted in DMSO, then diluted 100 times in culture media. 100 μL diluted compounds were added into the plates to reach 0.5% final concentration of DMSO in every well. Five days after compound treatment, culture supernatant was collected for further analysis.
For quantitative PCR detection of extracellular HBV DNA, 100 μL culture supernatant was collected and processed in MagNA Pure 96 Nucleic Acid Purification System (Roche Applied Science) for viral DNA extraction. The extracted samples were subjected to HBV DNA quantification by qPCR.
The compounds of the present invention were tested for their capacity to inhibit a HBV activity and activation as described herein.

[3] = HepG2.2.15 cells, in-house data, read-out: EC50

SMILES	solubility thermodynamic ([1]; phosphate buffer)	Human Hepatic Clearance [2]	EC50 (HBV; [3])	EC50 (HBV; HepG2.2.15)	solubility thermodynamic [1]
COC(=O)C1=C(CN2C[C@H](C(=O)O)CC(F)(F)C2)NC(c2nccs2)=N[C@H]1c1ccc(F)cc1Cl [Example 14, (R)-6-((R)-5-Carboxy-3,3-difluoro-piperidin-1-ylmethyl)-4-(2-chloro-4-fluoro-phenyl)-2-thiazol-2-yl-1,4-dihydro-pyrimidine-5-carboxylic acid methyl ester]	> 644 µg/mL	1.41 mL/min/kg	41 nM	–	–
COC(=O)C1=C(CN2CC(F)(F)C[C@H]2C(=O)O)NC(c2cc(Cl)cs2)=N[C@H]1c1ccc(F)cc1Cl [Example 23, (R)-6-((S)-2-Carboxy-4,4-difluoro-pyrrolidin-1-ylmethyl)-4-(2-chloro-4-fluoro-phenyl)-2-(4-chloro-thiophen-2-yl)-1,4-dihydro-pyrimidine-5-carboxylic acid methyl ester]	172 µg/mL (≈ 314 µM)	8.8 mL/min/kg	25 nM	–	–
COC(=O)C1=C(CN2CC(F)(F)C[C@H]2C(=O)O)NC(c2ncccc2C)=N[C@H]1c1ccc(F)cc1Cl [Example 24, (R)-6-((S)-2-Carboxy-4,4-difluoro-pyrrolidin-1-ylmethyl)-4-(2-chloro-4-fluoro-phenyl)-2-(3-methyl-pyridin-2-yl)-1,4-dihydro-pyrimidine-5-carboxylic acid methyl ester]	656 µg/mL (≈ 1250 µM)	3.19 mL/min/kg	26 nM	–	–
COC(=O)C1=C(CN2CC(F)(F)C[C@H]2C(=O)O)NC(c2nccs2)=N[C@H]1c1ccc(Br)cc1Cl [Example 29, (R)-4-(4-Bromo-2-chloro-phenyl)-6-((S)-2-carboxy-4,4-difluoro-pyrrolidin-1-ylmethyl)-2-thiazol-2-yl-1,4-dihydro-pyrimidine-5-carboxylic acid methyl ester]	420 µg/mL (≈ 729 µM)	7.65 mL/min/kg	28 nM	–	–
CCOC(=O)C1=C(CN2CCOC[C@H]2C(=O)O)NC(c2nccs2)=N[C@H]1c1ccc(Cl)cc1Cl [Example 39, (S)-4-[(R)-6-(2,4-Dichloro-phenyl)-5-ethoxycarbonyl-2-thiazol-2-yl-3,6-dihydro-pyrimidin-4-ylmethyl]-morpholine-3-carboxylic acid]	> 654 µg/mL	7.18 mL/min/kg	–	1.1 nM	–
COC(=O)C1=C(CN2CCOC[C@H]2C(=O)O)NC(c2nccs2)=N[C@H]1c1ccc(Br)c(F)c1F [Example 45, (5)-4-[(R)-6-(4-Bromo-2,3-difluoro-phenyl)-5-methoxycarbonyl-2-thiazol-2-yl-3,6-dihydro-pyrimidin-4-ylmethyl]-morpholine-3-carboxylic acid]	> 695 µg/mL	4.69 mL/min/kg	28 nM	–	–
CCOC(=O)C1=C(CN2CC(F)(F)C[C@H]2C(=O)O)NC(c2nccs2)=N[C@H]1c1ccc(C#N)cc1 [Example 48, (S)-6-((S)-2-Carboxy-4,4-difluoro-pyrrolidin-1-ylmethyl)-4-(4-cyano-phenyl)-2-thiazol-2-yl-1,4-dihydro-pyrimidine-5-carboxylic acid ethyl ester]	> 635 µg/mL	3.12 mL/min/kg	28 nM	–	–
CCOC(=O)C1=C(CN2CC(F)(F)C[C@H]2C(=O)O)NC(c2nccn2C)=N[C@H]1c1ccc(F)c(F)c1 [Example 56, (S)-6-((S)-2-Carboxy-4,4-difluoro-pyrrolidin-1-ylmethyl)-4-(3,4-difluoro-phenyl)-2-(1-methyl-1H-imidazol-2-yl)-1,4-dihydro-pyrimidine-5-carboxylic acid ethyl ester]	> 645 µg/mL	2.44 mL/min/kg	15 nM	–	–
COC(=O)C1=C(CN2CCOC[C@@]2(C)C(=O)O)NC(c2nccs2)=N[C@H]1c1ccc(F)c(F)c1Cl [Example 78, (S)-4-[(R)-6-(2-Chloro-3,4-difluoro-phenyl)-5-methoxycarbonyl-2-thiazol-2-yl-3,6-dihydro-pyrimidin-4-ylmethyl]-3-methyl-morpholine-3-carboxylic acid]	> 653 µg/mL	3.22 mL/min/kg	26 nM	–	–
COC(=O)C1=C(CN2C[C@H](C(=O)O)CC(F)(F)C2)NC(c2nc(C)cs2)=N[C@H]1c1ccc(F)cc1Cl [Example 80, (R)-6-((R)-5-Carboxy-3,3-difluoro-piperidin-1-ylmethyl)-4-(2-chloro-4-fluoro-phenyl)-2-(4-methyl-thiazol-2-yl)-1,4-dihydro-pyrimidine-5-carboxylic acid methyl ester]	518 µg/mL (≈ 954 µM)	4.27 mL/min/kg	27 nM	–	–
CCCOC(=O)C1=C(CN2CCOC[C@H]2C(=O)O)NC(c2nccs2)=N[C@H]1c1ccc(F)cc1Cl [Example 99, (S)-4-[6-(2-Chloro-4-fluoro-phenyl)-5-propoxycarbonyl-2-thiazol-2-yl-3,6-dihydro-pyrimidin-4-ylmethyl]-morpholine-3-carboxylic acid]	> 677 µg/mL	2.13 mL/min/kg	12 nM	–	–
CC(C)OC(=O)C1=C(CN2CCOC[C@H]2C(=O)O)NC(c2nccs2)=N[C@H]1c1ccc(F)c(F)c1 [Example 100, (S)-4-[(S)-6-(3,4-Difluoro-phenyl)-5-isopropoxycarbonyl-2-thiazol-2-yl-3,6-dihydro-pyrimidin-4-ylmethyl]-morpholine-3-carboxylic acid]	> 656 µg/mL	0.1 mL/min/kg	35 nM	–	–
COC(=O)C1=C(CN2CC(F)(F)CC[C@@H]2C(=O)O)NC(c2nccs2)=N[C@H]1c1cccc(F)c1Cl [Example 110, (R)-6-((R)-2-Carboxy-5,5-difluoro-piperidin-1-ylmethyl)-4-(2-chloro-3-fluoro-phenyl)-2-thiazol-2-yl-1,4-dihydro-pyrimidine-5-carboxylic acid methyl ester]	> 661 µg/mL	2.41 mL/min/kg	42 nM	–	–
CCOC(=O)C1=C(CN2CCO[C@H](C)[C@H]2C(=O)O)NC(c2nccs2)=N[C@H]1c1ccc(F)cc1Br [Example 116, (2R,3S)-4-[(R)-6-(2-Bromo-4-fluoro-phenyl)-5-ethoxycarbonyl-2-thiazol-2-yl-3,6-dihydro-pyrimidin-4-ylmethyl]-2-methyl-morpholine-3-carboxylic acid]	–	0 mL/min/kg	–	1.8 nM	> 735 µg/mL
CCOC(=O)C1=C(CN2CCOC[C@H]2C(=O)O)NC(c2nccs2)=N[C@H]1c1ccc(Cl)c(Br)c1 [Example 124, (3S)-4-[[(4S)-4-(3-Bromo-4-chlorophenyl)-5-ethoxycarbonyl-2-(1,3-thiazol-2-yl)-1,4-dihydropyrimidin-6-yl]methyl]morpholine-3-carboxylic acid]	> 655 µg/mL	2.17 mL/min/kg	29 nM	–	–
CCOC(=O)C1=C(CN2CCOC[C@H]2C(=O)O)NC(c2nccs2)=N[C@H]1c1cc(F)cc(Cl)c1 [Example 125, (3S)-4-[[(4S)-4-(3-Chloro-5-fluorophenyl)-5 ethoxycarbonyl-2-(1,3-thiazol-2-yl)-1,4-dihydropyrimidin-6-yl]methyl]morpholine-3 carboxylic acid]	> 636 µg/mL	1.32 mL/min/kg	30 nM	–	–
